The numbers were not newly measured in US20210322342A1, “ENDOXIFEN FOR THE TREATMENT OF BIPOLAR I DISORDER” (Jina Pharmaceuticals, Inc., priority 2020, published 2021), which cites them from elsewhere.

One data set has as its system PKC. Conditions: compared to tamoxifen.
The conditions of data set [1]: for plasma levels of free thyroxin (fT4): use of antipsychotics.

Each structure is given as a SMILES string.

`CC/C(=C(\c1ccc(O)cc1)c1ccc(OCCNC)cc1)c1ccccc1.O=C(O)CC(O)(CC(=O)O)C(=O)O` [Endoxifen, (Z)—1-(4-Hydroxyphenyl)-1-{4-[2-(monomethylamino)ethoxy]phenyl}—2—pheny 1-1-butene citrate]: in the data set on PKC, the “potency in inhibiting the PKC activity” value is listed as “four-fold higher potency”. For the compound `Cc1cc2c(s1)Nc1ccccc1N=C2N1CCN(C)CC1` [olanzapine], the haematological adverse effects entry in data set [1] (in vivo) is “causes neutropenia and thrombocytopenia”. In data set [1], the “plasma levels of free thyroxin (fT4)” value is on record as “significantly lower”. With `OCCOCCN1CCN(C2=Nc3ccccc3Sc3ccccc32)CC1` [quetiapine], the “plasma levels of free thyroxin (fT4)” value in data set [1] is on record as “significantly lower”.
